By CC50 is commonly meant the concentration giving 50% cytotoxicity. A higher CC50 goes with lower toxicity to the cells. Usually IC50 stands for the point on the concentration scale where inhibition reaches its midpoint.

The values below come from paper PMC5786798, “Discovery of New Inhibitors of Toxoplasma gondii via the Pathogen Box” (Antimicrobial Agents and Chemotherapy, 2018).

A short description of data set [1]: Cytotoxicity evaluation on Vero cell cultures (UptiBlue viable cell counting assay, 72 h). The format is cell-based. As to conditions: African green monkey, Vero cells, means from four values from two experiments. The method, then:
The in vitro cytotoxicity of compounds was evaluated on Vero cell cultures by using 96-well plates, since these cells were used for T. gondii growth in our model. […] After 72 h, cytotoxicity was evaluated by using the UptiBlue viable cell counting assay (Interchim). […] Spectrophotometric measurements (FLUOstar Omega microplate reader; BMG Labtech, France) were made at 570 nm and corrected at 600 nm, and blank readings were made on the mean value of the seven negative-control wells. A sample was considered toxic when the cell viability was lower than 80%. […] For a visual control, the last well of each condition was fixed with cold methanol and stained with kit RAL 555 (RAL Diagnostics, France) and examined microscopically (AxioVert 200M; Zeiss, France) at a magnification of ×20 instead of being tested with UptiBlue.

For another data set, the system named is Toxoplasma gondii. As to conditions: effect against Toxoplasma; literature value, no reference given; cited from earlier work.
In data set [2] the test system is T. gondii tachyzoites (RH strain, type I). Kind of data set: Determination of IC50s, in vitro chemosensitivity of T. gondii (ELISA, 72 h). As to conditions: for selective antitoxoplasmic activity according to hit criteria: hit criteria IC50 <2 μM and SI >4; for IC50: T. gondii RH tachyzoites on Vero cells, 72 h, ELISA, 2-fold dilution series 2 to 0.015 μM, means from four values from two experiments. (In an ELISA, binding on a coated surface is turned into a signal by an enzyme label.)

In data set [1], `CNC(=O)c1nn(C)c2c1C(C)(C)Cc1cnc(Nc3ccc(N4CCN(C)CC4)cc3)nc1-2` [MMV676602] displayed a cytotoxic concentration (CC50) at 72 h of 3.3 µM. On to `OC(Cn1cncn1)(Cn1cncn1)c1ccc(F)cc1F` [fluconazole], for which the 50% inhibitory concentration (IC50) with Toxoplasma gondii was 3 µM. In data set [1], `COc1ccc(OC)c(NCc2ccc3nc(N)nc(N)c3c2Cl)c1` [MMV675968] showed a CC50 at 72 h of 5.5 µM. For `FC(F)(F)c1cnc(Sc2nnc(-c3ccncc3)o2)c(Cl)c1` [MMV011765], the CC50 at 72 h in data set [1] is 9.48 µM. Take `CN1CCC(c2cc(-c3ccncc3)c(-c3ccc(F)cc3)[nH]2)CC1` [MMV688703]: the results for the “selective antitoxoplasmic activity according to hit criteria” value in data set [2] and in data set [2] (listed as MV688703) were “not selective” and “did not show the criteria for inclusion as an active compound”, respectively. Turning to `c1ccc(-c2nc(NC3CCCCC3)cc(C3CC3)n2)nc1` [MMV021013], the IC50 in data set [2] was 1.12 ± 0.035 µM; in data set [2] (Toxoplasma gondii, Vero), less than 2 µM. The same molecule returned a cytotoxic concentration (CC50) at 72 h in data set [1] of 15.9 µM.

As for `CC(C)(C)[C@H]1CC[C@H](CC2=C(O)C(=O)c3ccccc3C2=O)CC1` [MMV689480, buparvaquone, reference compound], in data set [1], half-maximal cytotoxicity (CC50 at 72 h) was put at 8.66 µM. Still for that read-out and setting: then `O=C(Nc1ccc(N2CCNCC2)cc1)c1ccn2ncc(-c3cccc(Cl)c3)c2n1` [MMV022478], with 2.23 µM; and `O=C(Nc1ccc(C(F)(F)F)c(C(F)(F)F)c1)c1cc(Cl)ccc1O` [MMV687807], with 1.69 µM; and `O=C(Nc1nc(-c2ccccn2)cs1)c1cncn1-c1ccccc1` [MMV676512], with 3.61 µM.

With `CCC(C)n1ncn(-c2ccc(N3CCN(c4ccc(OCC5COC(Cn6cncn6)(c6ccc(Cl)cc6Cl)O5)cc4)CC3)cc2)c1=O` (stereo not shown) [itraconazole], the IC50 in the data set with Toxoplasma gondii is 0.5 µM. `CCc1nc(N)nc(N)c1-c1ccc(Cl)cc1` [PYR, pyrimethamine, reference compound]: the IC50 in data set [2] (Toxoplasma gondii, Vero) came to 1.17 ± 0.076 µM. The molecule further registered a CC50 at 72 h in data set [1] of 10.5 µM.
